Experimental data published in publication PMC4175339, “Inhibition of the Functional Interplay between Endoplasmic Reticulum (ER) Oxidoreduclin-1α (Ero1α) and Protein-disulfide Isomerase (PDI) by the Endocrine Disruptor Bisphenol A” (The Journal of Biological Chemistry, 2014).

Target: T1, human PDI + hyperactive human Ero1α (Ero1α-mediated PDI oxidation) (Homo sapiens, UniProt P07237)
T1 construct: gene P4HB; recombinant from E. coli; with ERO1-like protein alpha
Assay: NADPH consumption assay coupled to glutathione reductase, A340
Format: biochemical

T1 sequence (P07237 18-508): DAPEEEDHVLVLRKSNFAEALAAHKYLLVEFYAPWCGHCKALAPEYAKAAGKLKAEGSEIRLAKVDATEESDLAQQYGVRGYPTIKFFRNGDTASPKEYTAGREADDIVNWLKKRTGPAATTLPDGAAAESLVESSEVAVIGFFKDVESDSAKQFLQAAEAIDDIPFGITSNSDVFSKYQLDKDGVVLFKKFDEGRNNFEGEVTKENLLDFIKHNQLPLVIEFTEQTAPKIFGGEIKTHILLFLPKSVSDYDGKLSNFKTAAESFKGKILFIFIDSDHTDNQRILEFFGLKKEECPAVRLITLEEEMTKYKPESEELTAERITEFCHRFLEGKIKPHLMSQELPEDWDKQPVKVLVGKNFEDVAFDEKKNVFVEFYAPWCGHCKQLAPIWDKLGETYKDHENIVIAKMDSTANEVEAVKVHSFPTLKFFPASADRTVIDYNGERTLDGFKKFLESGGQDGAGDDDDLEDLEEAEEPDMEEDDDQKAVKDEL
T1 sequence (Q96HE7 24-468 C104A/C131A partner): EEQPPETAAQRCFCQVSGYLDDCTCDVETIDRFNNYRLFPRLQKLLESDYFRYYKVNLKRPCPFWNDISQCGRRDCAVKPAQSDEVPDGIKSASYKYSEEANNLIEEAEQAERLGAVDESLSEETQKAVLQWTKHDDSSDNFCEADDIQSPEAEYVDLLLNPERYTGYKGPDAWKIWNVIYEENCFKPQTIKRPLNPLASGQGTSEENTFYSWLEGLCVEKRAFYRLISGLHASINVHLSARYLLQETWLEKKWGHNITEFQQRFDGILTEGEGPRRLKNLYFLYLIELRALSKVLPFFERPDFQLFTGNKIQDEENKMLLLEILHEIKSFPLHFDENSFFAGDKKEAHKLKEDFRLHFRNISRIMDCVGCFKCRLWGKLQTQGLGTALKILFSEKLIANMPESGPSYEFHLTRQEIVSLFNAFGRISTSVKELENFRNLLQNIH

IC50: 41 µM
Compound: CC(C)(c1ccc(O)cc1)c1ccc(O)cc1 [bisphenol A, 2,2′-bis(4-hydroxyphenyl) propane]
